# Reference: the NIST ThermoML archive (doi:10.1016/j.fluid.2006.01.030)
# ± gives the expanded uncertainty stated by the source.
# Assays:
# [1] = Liquid
# [2] = xn = mol fraction of the nth substance listed; conditions: Liquid, x1 = 1
# [3] = 293.15 K, 100 kPa, Capillary tube (Ostwald / Ubbelohde) method
# [4] = 293.15 K, 20000 kPa, Falling or rolling sphere viscometry
# [5] = 293.15 K, 40000 kPa, Falling or rolling sphere viscometry
# [6] = 293.15 K, 60000 kPa, Falling or rolling sphere viscometry
# [7] = 293.15 K, 80000 kPa, Falling or rolling sphere viscometry
# [8] = 293.15 K, 100000 kPa, Falling or rolling sphere viscometry
# [9] = 313.15 K, 100 kPa, Capillary tube (Ostwald / Ubbelohde) method
# [10] = 313.15 K, 20000 kPa, Falling or rolling sphere viscometry
# [11] = 313.15 K, 40000 kPa, Falling or rolling sphere viscometry
# [12] = 313.15 K, 60000 kPa, Falling or rolling sphere viscometry
# [13] = 313.15 K, 80000 kPa, Falling or rolling sphere viscometry
# [14] = 313.15 K, 100000 kPa, Falling or rolling sphere viscometry
# [15] = 333.15 K, 100 kPa, Capillary tube (Ostwald / Ubbelohde) method
# [16] = 333.15 K, 20000 kPa, Falling or rolling sphere viscometry
# [17] = 333.15 K, 40000 kPa, Falling or rolling sphere viscometry
# [18] = 333.15 K, 60000 kPa, Falling or rolling sphere viscometry
# [19] = 333.15 K, 80000 kPa, Falling or rolling sphere viscometry
# [20] = 333.15 K, 100000 kPa, Falling or rolling sphere viscometry
# [21] = 353.15 K, 20000 kPa, Falling or rolling sphere viscometry
# [22] = 353.15 K, 40000 kPa, Falling or rolling sphere viscometry
# [23] = 353.15 K, 60000 kPa, Falling or rolling sphere viscometry
# [24] = 353.15 K, 80000 kPa, Falling or rolling sphere viscometry
# [25] = 353.15 K, 100000 kPa, Falling or rolling sphere viscometry
structure (smiles),measurement,setting,value
CCO [ethanol],viscosity,[1]; [3],1.194 ± 0.025 mPa·s
same,viscosity,[1]; [4],1.344 ± 0.058 mPa·s
same,viscosity,[1]; [5],1.494 ± 0.065 mPa·s
same,viscosity,[1]; [6],1.647 ± 0.071 mPa·s
same,viscosity,[1]; [7],1.797 ± 0.077 mPa·s
same,viscosity,[1]; [8],1.955 ± 0.084 mPa·s
same,viscosity,[1]; [9],0.826 ± 0.017 mPa·s
same,viscosity,[1]; [10],0.948 ± 0.042 mPa·s
same,viscosity,[1]; [11],1.059 ± 0.047 mPa·s
same,viscosity,[1]; [12],1.171 ± 0.052 mPa·s
same,viscosity,[1]; [13],1.282 ± 0.056 mPa·s
same,viscosity,[1]; [14],1.392 ± 0.061 mPa·s
same,viscosity,[1]; [15],0.59 ± 0.013 mPa·s
same,viscosity,[1]; [16],0.683 ± 0.03 mPa·s
same,viscosity,[1]; [17],0.769 ± 0.034 mPa·s
same,viscosity,[1]; [18],0.851 ± 0.037 mPa·s
same,viscosity,[1]; [19],0.934 ± 0.041 mPa·s
same,viscosity,[1]; [20],1.015 ± 0.044 mPa·s
same,viscosity,[1]; [21],0.51 ± 0.022 mPa·s
same,viscosity,[1]; [22],0.574 ± 0.025 mPa·s
same,viscosity,[1]; [23],0.636 ± 0.028 mPa·s
same,viscosity,[1]; [24],0.699 ± 0.031 mPa·s
same,viscosity,[1]; [25],0.763 ± 0.033 mPa·s
CCO [ethanol] + CCCCCCC,viscosity,[2]; [3],1.194 ± 0.025 mPa·s
same,viscosity,[2]; [4],1.344 ± 0.058 mPa·s
same,viscosity,[2]; [5],1.494 ± 0.065 mPa·s
same,viscosity,[2]; [6],1.647 ± 0.071 mPa·s
same,viscosity,[2]; [7],1.797 ± 0.077 mPa·s
same,viscosity,[2]; [8],1.955 ± 0.084 mPa·s
same,viscosity,[2]; [9],0.826 ± 0.017 mPa·s
same,viscosity,[2]; [10],0.948 ± 0.042 mPa·s
same,viscosity,[2]; [11],1.059 ± 0.047 mPa·s
same,viscosity,[2]; [12],1.171 ± 0.052 mPa·s
same,viscosity,[2]; [13],1.282 ± 0.056 mPa·s
same,viscosity,[2]; [14],1.392 ± 0.061 mPa·s
same,viscosity,[2]; [15],0.59 ± 0.013 mPa·s
same,viscosity,[2]; [16],0.683 ± 0.03 mPa·s
same,viscosity,[2]; [17],0.769 ± 0.034 mPa·s
same,viscosity,[2]; [18],0.851 ± 0.037 mPa·s
same,viscosity,[2]; [19],0.934 ± 0.041 mPa·s
same,viscosity,[2]; [20],1.015 ± 0.044 mPa·s
same,viscosity,[2]; [21],0.51 ± 0.022 mPa·s
same,viscosity,[2]; [22],0.574 ± 0.025 mPa·s
same,viscosity,[2]; [23],0.636 ± 0.028 mPa·s
same,viscosity,[2]; [24],0.699 ± 0.031 mPa·s
same,viscosity,[2]; [25],0.763 ± 0.033 mPa·s
CCCCCCC [heptane],viscosity,[1]; [3],0.41 ± 0.009 mPa·s
same,viscosity,[1]; [4],0.509 ± 0.021 mPa·s
same,viscosity,[1]; [5],0.604 ± 0.025 mPa·s
same,viscosity,[1]; [6],0.706 ± 0.03 mPa·s
same,viscosity,[1]; [7],0.817 ± 0.034 mPa·s
same,viscosity,[1]; [8],0.937 ± 0.039 mPa·s
same,viscosity,[1]; [9],0.333 ± 0.007 mPa·s
same,viscosity,[1]; [10],0.408 ± 0.017 mPa·s
same,viscosity,[1]; [11],0.487 ± 0.02 mPa·s
same,viscosity,[1]; [12],0.57 ± 0.024 mPa·s
same,viscosity,[1]; [13],0.658 ± 0.028 mPa·s
same,viscosity,[1]; [14],0.751 ± 0.032 mPa·s
same,viscosity,[1]; [15],0.276 ± 0.006 mPa·s
same,viscosity,[1]; [16],0.336 ± 0.014 mPa·s
same,viscosity,[1]; [17],0.402 ± 0.017 mPa·s
same,viscosity,[1]; [18],0.472 ± 0.02 mPa·s
same,viscosity,[1]; [19],0.546 ± 0.023 mPa·s
same,viscosity,[1]; [20],0.623 ± 0.026 mPa·s
same,viscosity,"[1]; 353.15 K, 100 kPa, Capillary tube (Ostwald / Ubbelohde) method",0.232 ± 0.005 mPa·s
same,viscosity,[1]; [21],0.289 ± 0.012 mPa·s
same,viscosity,[1]; [22],0.346 ± 0.014 mPa·s
same,viscosity,[1]; [23],0.401 ± 0.017 mPa·s
same,viscosity,[1]; [24],0.458 ± 0.019 mPa·s
same,viscosity,[1]; [25],0.521 ± 0.022 mPa·s
